Laboratory results from US11680264B2, “Methods of modulating melanosome pH and melanin level in cells” (Cornell University, priority 2016, dated 2023).

Experiments:
sAC^KO mouse melanocytes [1] = assay: DAMP melanosome pH assay (HMB45 co-staining); type: cell-based; settings: 4 hours; for effect on cAMP-dependent rescue of melanosome pH (DAMP): co-incubation with cAMP [Sp-8-CPT-cAMPs], 10 μM; for melanosome pH (DAMP), substance alone: KH7 30 μM, cAMP analogs 500 μM, ESI-09 10 μM, MSH 100 nM
Method: (§1) N-{3-[(2,4-dinitrophenyl)amino]propyl}-N-(3-aminopropyl)methylamine dihydrochloride (DAMP) is a weakly basic amine that is taken up in acidic organelles of live cells and which has been used to measure melanosome pH (Bin et al., PLOS One, 10(6):e0129273 (2015); Tabata et al., Cell Tissue Res., 332(3): 447-460 (2008)). Cells were cultured on sterile glass coverslips in 24-mm wells at 50×10^3 cells/coverslip. […] After permeabilization with 0.1% Triton X-100 in Buffer A at −20° C., the cells were labeled with the supplied anti-DNP antibody (Oxford Biomedical Research) according to kit protocol. Melanosomes were identified using the monoclonal antibody (anti-HMB45, 1:40, Santa Cruz Biotechnology). Fluorescence was detected after secondary staining with Alexa Fluor 546 donkey anti-goat IgG antibody (Invitrogen) and Alexa Fluor 647 donkey anti-mouse IgG antibody (Invitrogen). All quantitative analyses were performed using the Object Count tool in Nikon AR 4.60. For each image, the lower intensity threshold limit of each fluorescence channel was defined as the intensity of the dimmest punctum returned using the 3 points circle threshold tool. The upper intensity threshold limit was set to the maximum value. Equivalent diameter (EqDiameter) was restricted to 1.85-30.00 pixels. Circularity was restricted to 0.20-1.00. Mean fluorescence intensity was measured for all DAMP^+ puncta. Melanosomes were identified as HMB45^+ puncta. DAMP measurements were only recorded when colocalized with HMB45. Frequency distributions were generated for each sample from mean DAMP fluorescence intensity of DAMP^+ melanosomes. All analyses were performed on two replicate coverslips (n≥15 cells per coverslip). Melanosomes were first identified as TRP1^+ or tyrosinase^+ puncta. sAC^+ melanosomes were identified as R52^+ or R21^+ puncta colocalizing with TRP1^+ or tyrosinase^+ puncta. The degree of colocalization between sAC and melanosomes was calculated as the number of sAC+ melanosomes divided by the total number of melanosomes and expressed as a percentage.
(§2) The effect of pharmacologic inhibition of sAC was also measured using the DAMP assay described above. Briefly, Cells were cultured on sterile glass coverslips in 24-mm wells at 50×10^3 cells/coverslip and treated or not treated for 4 hours with 30 μM KH7 or LRE1. […] After permeabilization with 0.1% Triton X-100 in Buffer A at −20° C., the cells were labeled with the supplied anti-DNP antibody (Oxford Biomedical Research) according to kit protocol. Melanosomes were identified using the monoclonal antibody (anti-HMB45, 1:40, Santa Cruz Biotechnology). Fluorescence was detected after secondary staining with Alexa Fluor 546 donkey anti-goat IgG antibody (Invitrogen) and Alexa Fluor 647 donkey anti-mouse IgG antibody (Invitrogen). All images were acquired using a Zeiss LSM 880 and analyzed using NIS-Elements AR 4.60 (Nikon).

human melanocytes [2] = assay: DAMP melanosome pH assay (HMB45 co-staining); type: cell-based; settings: for melanosome pH (DAMP), substance alone: 4 hours, KH7 30 μM, cAMP 500 μM, H89 10 μM, ESI-09 10 μM
Method: as §1
The effect of sAC inhibition on melanosome pH was also assessed in human melanocytes.

sAC^FF mouse melanocytes [3] = assay: DAMP melanosome pH assay (HMB45 co-staining); type: cell-based; settings: sAC^FF mouse melanocytes; for melanosome pH (DAMP uptake at HMB45 positive melanosomes), substance alone: 4 hours, KH7 30 μM, cAMP 500 μM, H89 10 μM, PKI 10 μM, ESI-09 10 μM
Method: as §1, §2

sAC^KO mouse melanocytes [4] = assay: LysoSensor Yellow/Blue DND-160 organelle pH assay; type: cell-based; settings: 30 μM, 4 hours
Method: (§3) To determine the pH of the sAC^KO and sAC^FF melanocytes the pH-sensitive vital dye LysoSensor Yellow/Blue DND-160 (Bellono et al. Sci Rep., 6:26570 (2016)) was used. Briefly, cells were incubated with 1 μM LysoSensor DND-160 (Invitrogen) for 5 minutes at 37° C. Lysosensor was excited at 405 nm and its emission detected at 417-483 nm (W1) and 490-530 nm (W2). The ratio of emissions (W1/W2) in Lysosensor-stained puncta was assigned to a pH value based on a calibration curve generated for each experiment using solutions containing 125 mM KCl, 25 mM NaCl, 24 μM monensin, and varying concentrations of MES to adjust the pH to 4, 4.5, 5.0, 5.5, 6.0, 6.5, 7.0, 7.5. The fluorescence ratio was linear for pH 5.0-7.0.
as §3, with “The effect” for “To determine the pH”, “pharmacologic inhibition of sAC was examined using” for “the sAC^KO and sAC^FF melanocytes”, “vial” for “vital”, “assay, described above.” for “(Bellono et al. Sci Rep., 6:26570 (2016)) was used.”, “Briefly, cultured sAC^FF melanocytes were treated for 4 hours with 30 μM KH7, 30 μM LRE1, or control (untreated). The” for “Briefly,”

sAC^FF mouse melanocytes [5] = assay: LysoSensor Yellow/Blue DND-160 organelle pH assay; type: cell-based; settings: 30 μM, 4 hours
Method: as §3
as §3, with “The effect” for “To determine the pH”, “pharmacologic inhibition of sAC was examined using” for “the sAC^KO and sAC^FF melanocytes”, “vial” for “vital”, “assay, described above.” for “(Bellono et al. Sci Rep., 6:26570 (2016)) was used.”, “Briefly, cultured sAC^FF melanocytes were treated for 4 hours with 30 μM KH7, 30 μM LRE1, or control (untreated). The” for “Briefly,”

sAC^KO mouse melanocytes [6] = assay: Cellular eumelanin content; type: cell-based; settings: 96 hours
Method: (§4) FIGS. 15A-15J provide the results of experiments analyzing the effect of sAC activity on melanin production. FIG. 15A is a graph illustrating the cellular eumelanin and pheomelanin content in sAC^FF (FF) and sAC^KO (KO) mouse melanocytes. Numbers above bars represent the ratio of pheomelanin to eumelanin. Average of triplicate determinations. FIG. 15B is a graph illustrating the cellular eumelanin content of sAC^FF and sAC^KO mouse melanocytes grown for 96 hours in the absence (−, DMSO) or presence of KH7 (+, 30 μM). Average of triplicate determinations. FIG. 15C is a graph illustrating the fold over baseline cellular eumelanin level of human melanocytes (n=8) treated with KH7 (30 μM) or vehicle (DMSO) for 48 hours. All assays performed in triplicate. Students t-test **P<0.01, ****P<0.0001. FIG. 15D is images of cell pellets of sAC^FF and sAC^KO mouse melanocytes. FIG. 15E is a graph of the melanin levels of pairs of sAC^FF and sAC^KO mouse melanocytes. FIGS. 15F and 15G are images of cell pellets of sAC^FF mouse melanocytes grown in the absence (DMSO, FIGS. 15G and 15F, left panels) or presence of KH7 (FIG. 15G, 30 μM, right panel) or LRE1 (FIG. 15F, 50 μM, right panel) for 96 hours. FIG. 15H is images of cell pellets of human melanocytes (C226, C38) treated with vehicle control (DMSO, left) or KH7 (30 μM, right) for 48 hours. FIG. 15I is images of cell pellets of human melanocytes (C226) treated with vehicle control (DMSO, left) or ESl-09 (10 μM, right) for 48 hours. FIG. 15J is a graph illustrating the fold over baseline cellular (eumelanin) level of human melanocytes treated with ESl-09 (10 μM) or vehicle (DMSO) for 48 hours (n=3, distinct human cell lines). For FIGS. 15E and 15J Students t-test, *p<0.05, **p<0.01, ****p<0.0001.

sAC^FF mouse melanocytes [7] = assay: Cellular eumelanin content; type: cell-based; settings: KH7 30 μM or LRE1 50 μM, 96 hours
Method: as §4

C3H/HeJ mice [8] = assay: Topical treatment of epilated back skin, hair pigmentation; type: in vivo, mouse
Method: Therefore, experiments were performed to determine whether inhibition of sAC in animals could alter hair pigmentation. Animal experiments were performed in accordance with approved Institutional Animal Care and Use Committee protocol at Weill Cornell Medicine. Age and gender matched C3H/HeJ mice (female, 7 weeks old) were purchased from The Jackson Laboratory. For the analysis of hair pigmentation, the upper and lower dorsum of each mouse were epilated using hair removal wax. 10 μl of KH7 (42 mg/ml in DMSO), LRE1 (28 mg/ml in DMSO) or DMSO (vehicle control) was topically applied onto the upper back and DMSO was applied to the lower back three times a day over two weeks. These mice were monitored for changes in coat color as the epilated hair grew back. Hair was removed from each treated area after 3 weeks to measure the length of the total hair, apical black tip and subapical agouti (pheomelanin) band under a stereo microscope. Mice were euthanized and the treated skin was submitted to a blinded animal pathologist for histological evaluation of the epidermis and hair follicles. This experiment was performed twice with 3-4 mice per cohort (total n=6-7)

C3H/HeJ mice [9] = assay: Topical treatment of ear, epidermal pigmentation (Fontana Masson); type: in vivo, mouse; settings: topical on right ear, twice a day for two weeks
Method: Melanocytes also exist in the epidermis at specific areas of mouse skin (e.g., pinnae) (Nordlund et al., Dermatol Clin., 4(3): 407-418 (1986)); thus, these areas were studied to examine the role of sAC in epidermal pigmentation. For analysis of epidermal pigmentation, using C3H/HeJ mice as above, 20 μl of KH7 ([…]), LRE1 (28 mg/ml) or DMSO (vehicle control) was topically applied on the right ear and DMSO was topically applied on the left ear twice a day for two weeks. Ear skin was monitored daily for irritation and changes in pigmentation. After two weeks, mice were euthanized and the treated skin was submitted to a blinded animal pathologist for histological evaluation of the epidermis and special stains (Fontana Masson). This experiment was performed twice with 3 mice per cohort (total n=6)

human melanocytes [10] = assay: Cellular eumelanin content; type: cell-based; settings: 48 hours, KH7 30 μM, ESI-09 10 μM
Method: as §4

PKA targeted proteins = assay: Western blot of PKA substrate phosphorylation; type: cell-based; settings: mouse and human melanocytes, 4 hours
[11] = co-incubation with 30 μM KH7, 4 hours, cAMP analogs 500 μM, MSH 100 nM
[12] = topical on back, hair removed after 3 weeks

C[C@@H]1C[C@@H]([C@H](O)CC2CC(=O)NC(=O)C2)C(=O)[C@@H](C)C1 [cycloheximide]
effect on cAMP-dependent rescue of melanosome pH (DAMP) (sAC^KO mouse melanocytes [1]): did not block the ability of cAMP to rescue pH following sAC inhibition

CO[C@H]1C2OP(=O)(O)OC[C@H]2O[C@H]1n1c(Sc2ccc(O)cc2)nc2c(N)ncnc21 (stereo partly shown) [8-pHPT-2′-O-Me-cAMP, 8-(4-Hydroxyphenylthio)-2′-O-methyladenosine-3′, 5′-cyclic monophosphate]
effect on KH7-induced alkaline shift in melanosome pH (DAMP) (human melanocytes [2]; [11]): mitigate the KH7-induced alkalization of melanosome pH | melanosome pH (DAMP), substance alone (sAC^KO mouse melanocytes [1]): sufficient to induce melanosome acidification | effect on KH7-induced alkaline shift in melanosome pH (DAMP) (sAC^FF mouse melanocytes [3]; [11]): mitigate the KH7-induced alkalization of melanosome pH

LRE1
pH of LysoSensor-visualized organelles (sAC^KO mouse melanocytes [4]): had no effect | pH of LysoSensor-visualized organelles (sAC^FF mouse melanocytes [5]): induced an alkaline pH shift | eumelanin levels (sAC^KO mouse melanocytes [6]): had no effect | eumelanin levels (sAC^FF mouse melanocytes [7]): increased eumelanin levels | eumelanin production in hair (microscopic examination) (C3H/HeJ mice [8]; [12]): increase in eumelanin production | length of the agouti (pheomelanin) band (C3H/HeJ mice [8]; [12]): reduction in length of the agouti (pheomelanin) band | histologic examination of treated skin (C3H/HeJ mice [8]; topical on back, two weeks): did not reveal any pathological change to the hair follicles or epidermis | colour of regrown hair versus vehicle control (C3H/HeJ mice [8]; topical on epilated back, 10 μl KH7 42 mg/ml or LRE1 28 mg/ml in DMSO, three times a day over two weeks): visual darkening of regrown hair | colour of ear epidermis relative to vehicle control (C3H/HeJ mice [9]; 20 μl KH7 or LRE1 (28 mg/ml)): induced visual darkening of mouse ear epidermis | epidermal melanin accumulation (Fontana Masson) (C3H/HeJ mice [9]): increase in epidermal melanin accumulation

CC(C)(C)c1cc(C(=O)C(C#N)=NNc2cccc(Cl)c2)no1 [ESI-09, 3-(5-tert-butyl-isoxazol-3-yl)-2-((3-chlorophenyl)-hydrazono)-3-oxo-propionitrile]
eumelanin level (human melanocytes [10]): induced an increase in eumelanin level | melanosome pH (DAMP), substance alone (human melanocytes [2]): elevated melanosome pH | melanosome pH (DAMP), substance alone (sAC^KO mouse melanocytes [1]): had no effect on melanosome pH | melanosome pH (DAMP uptake at HMB45 positive melanosomes), substance alone (sAC^FF mouse melanocytes [3]): elevated melanosome pH

O=S(=O)(NCCNC/C=C/c1ccc(Br)cc1)c1cccc2cnccc12 [H89]
phosphorylation of PKA targeted proteins (PKA targeted proteins): dramatic reduction in the phosphorylation of PKA targeted proteins | melanosome pH (DAMP), substance alone (human melanocytes [2]): had no effect on melanosome pH | effect on cAMP-dependent rescue of melanosome pH (DAMP) (sAC^KO mouse melanocytes [1]): did not block the cAMP-dependent rescue of melanosome pH | melanosome pH (DAMP uptake at HMB45 positive melanosomes), substance alone (sAC^FF mouse melanocytes [3]): had no effect on melanosome pH
